Test results as given in US12404489B2, “Establishing topographic organization in three-dimensional tissue culture” (MEMORIAL SLOAN-KETTERING CANCER CENTER, priority 2017, dated 2025).
“Also recorded” adds a separate entry of the source. Where two headings read alike, the source gives them in different places.

Key:
[1] = system: SHH signaling activity in SHH-organoids; assay: Drug treatment of SHH-organoids, positional domains analysed at day 20; format: cell-based, human; settings: day 20 SHH-organoids
Protocol: Day 20 organoids were fixed in 4% PFA overnight at 4° C. and washed three times with PBS the next day. […] Sections were blocked for 30 minutes in 10% FBS, 1% BSA, 0.3% triton in PBS, and incubated as floating section in primary antibody overnight. The next day, sections were washed with PBS and incubated as floating section in secondary antibody for 3 hours at room temperature. Day 6 organoids were fixed in 4% PFA for 2 hours at 4° C. and washed three times with PBS. After fixation, tissue was cryoprotected in 30% sucrose/PBS and sectioned at […] and mounted directly onto slides prior to immunofluorescence assays.
Organoid topography was quantified by first dividing each image into a grid of […] squares (day 20 analysis) or […] squares (day 6 analysis) that form a Cartesian coordinate grid. Each square is a discrete region of interest (ROI) that is associated with an X and Y coordinate. The origin of the grid was calculated for each image as the “center of mass” of the iSHH-organizer cells: CMx=S mixi/M and CMy=S miyi/M, where m=grey value intensity of iSHH cells for individual ROIs, x or y=coordinate, and M=total intensity for all ROIs, and the sum includes all x or y coordinates in the image. Next, ROI's that were positive for expression of a given protein (e.g. PAX6) were defined by thresholding staining intensity and determining ROIs with positive immunoreactivity. The linear distance from the origin to each ROI (sqrt((ROIx-CM^x)^2+(ROIy-CMy)^2)) was calculated. The present study analyzed every sixth section for each regional marker per organoid (typically 2-5 sections/organoid, depending on organoid size), thus sampling the organoids in 150 μm intervals using uniform random sampling.

[2] = system: SHH signaling in SHH organizer-containing organoids; assay: Example 6.2: SHH organizer-containing organoids treated with cholesterol inhibitors (FIGS. 15-16); format: cell-based, human; settings: for SHH signaling (PAX6+ extent of organoid): FIG. 15; for long-range and short-range SHH signaling: FIG. 16
Protocol: To evaluate the effect of statins on fetal development, in certain embodiments SHH organizer-containing organoids are treated with statins.
FIG. 16 summarizes the effects of cholesterol inhibition on SHH organizer-containing organoids.

[3] = system: SHH-organoids
[4] = system: SHH signaling activity in SHH-organoids; assay: Drug treatment of SHH-organoids, NKX2.2 induction at day 6; format: cell-based, human; settings: day 6 organoids
Protocol: Day 20 organoids were fixed in 4% PFA overnight at 4° C. and washed three times with PBS the next day. After fixation, tissue was cryoprotected in 30% sucrose/PBS and sectioned at […] on a cryostat (Leica 3050 S). Sections were blocked for 30 minutes in 10% FBS, 1% BSA, 0.3% triton in PBS, and incubated as floating section in primary antibody overnight. The next day, sections were washed with PBS and incubated as floating section in secondary antibody for 3 hours at room temperature. Day 6 organoids were fixed in 4% PFA for 2 hours at 4° C. and washed three times with PBS. After fixation, tissue was cryoprotected in 30% sucrose/PBS and sectioned at […] and mounted directly onto slides prior to immunofluorescence assays.
Organoid topography was quantified by first dividing each image into a grid of […] squares (day 20 analysis) or […] squares (day 6 analysis) that form a Cartesian coordinate grid. […] The origin of the grid was calculated for each image as the “center of mass” of the iSHH-organizer cells: CMx=S mixi/M and CMy=S miyi/M, where m=grey value intensity of iSHH cells for individual ROIs, x or y=coordinate, and M=total intensity for all ROIs, and the sum includes all x or y coordinates in the image. […] The linear distance from the origin to each ROI (sqrt((ROIx-CM^x)^2+(ROIy-CMy)^2)) was calculated. […]

[5] = system: SHH-organoids; assay: Drug treatment of SHH-organoids, organoid and organizer size at day 20
[6] = system: SW480 cells; settings: cited from earlier work
[7] = doxycycline 400 ng/ml, lovastatin 5 μM, AY9944 1.25 μM
[8] = lovastatin 5 μM, AY9944 1.25 μM, cyclopamine 1 μM

Clc1ccccc1CNCC1CCC(CNCc2ccccc2Cl)CC1 (centres unmarked) [AY9944]
SHH signaling activity (efficacy and range) ([1]; doxycycline 400 ng/ml, drug day 0-10, lovastatin 5 μM, AY9944 1.25 μM, cyclopamine 1 μM): reduced the efficacy and range of SHH signaling activity; also recorded: strong reduction the range of SHH-signaling activity | NKX2.2 induction [1, 7]: largely blocked; also recorded: fail to induce NKX2.2 | NKX2.1 expression in or near the organizer [1, 8]: retained diencephalic NKX2.1 expression; also recorded: only retain NKX2.1 expression in the immediate vicinity of the organizer; also recorded: retain NKX2.1 and OTX2 expression within the organizer | SHH signaling (PAX6+ extent of organoid) [2]: largely blocked SHH signaling | long-range and short-range SHH signaling [2]: block long-range SHH signaling, but not short range signaling | overall organoid size / growth [3]: impaired growth | size of the organizer [3]: did not reduce the size of the organizer itself | NKX2.2 induction ([4]; all concentrations tested): strongly inhibited NKX2.2 induction at all concentrations tested; also recorded: strongly inhibits induction of NKX2.2

CC[C@H](C)C(=O)O[C@H]1C[C@@H](C)C=C2C=C[C@H](C)[C@H](CC[C@@H]3C[C@@H](O)CC(=O)O3)[C@H]21 [Lovastatin]
GSH2 expression domain ([1]; doxycycline 400 ng/ml, lovastatin 5 μM): concomitant increase in GSH2 expression; also recorded: increase in the relative area of the GSH2 expression domain | NKX2.2 induction [1, 7]: partial block in NKX2.2 induction; also recorded: moderate reduction in NKX2.2 induction | NKX2.1 expression in or near the organizer [1, 8]: retained diencephalic NKX2.1 expression; also recorded: retain NKX2.1 and OTX2 expression within the organizer | size of the organizer [5]: did not reduce the size of the organizer itself | overall organoid size / growth ([5]; drug day 0-10): impaired growth | distance at which NKX2.2 is induced from the organizer ([4]; lovastatin 2, 5, 20 μM): reduced the distance at which NKX2.2 is induced from the organizer in a dose-dependent manner; also recorded: dose-dependent reduction

Oc1nc(-c2ccc(C(F)(F)F)cc2)nc2c1CSCC2 [XAV939]
degradation of β-catenin [6]: promotes the degradation of β-catenin | protein levels of the axin-GSK3β complex [6]: increases the protein levels of the axin-GSK3β complex

CC1=C2C[C@H]3[C@@H](CC=C4C[C@@H](O)CC[C@@]43C)[C@@H]2CC[C@]12O[C@@H]1C[C@H](C)CN[C@H]1[C@H]2C [cyclopamine]
PAX6 expression ([1]; doxycycline 400 ng/ml, cyclopamine 1 μM): nearly uniform for PAX6 expression; also recorded: largely express PAX6 | NKX2.1 expression in or near the organizer [1, 8]: not | SHH signaling (PAX6+ extent of organoid) [2]: no SHH signaling | long-range and short-range SHH signaling [2]: block all SHH signaling
